Results on 3 molecules are retold here after US20040018528A1, “Novel biomarkers of tyrosine kinase inhibitor exposure and activity in mammals” (Sugen, Inc., priority 2002, published 2004).

Where “and” joins values, the source holds several entries; their conditions need not be identical. Equal values may be shown once.

Common to all, as to type: in vivo, human
Assay [1] concerns PAI-1. The assay is described as follows: ELISA of PAI-1 in plasma of patients given Compound A. The conditions noted are these: cancer patients; 24 hours after first dose vs before; dosed twice over 24 hours. How it is done:
(§1) (Minneapolis, Minn.). Human plasminogen activator inhibitor-1 (PAI-1) and human tissue factor (TF) ELISA kits were obtained from American Diagnostica, Inc. (Greenwich, Conn.). All ELISAs were performed on plasma samples according to the manufacturers' instructions.
On the technique in general: An ELISA detects its analyte on a solid surface through an enzyme-linked reagent.

For the next assay, the system named is VEGF. The assay is described as follows: ELISA of VEGF in plasma of patients given Compound A. As to conditions: cancer patients; 24 hours after first dose vs before; dosed twice over 24 hours. The procedure:
as §1

The next assay relates to TIMP-1. Briefly: ELISA of TIMP-1 in plasma of patients given Compound A. As to conditions: cancer patients; 24 hours after first dose vs before; dosed twice over 24 hours. The procedure: as §1
The test system of assay [2] is RNA transcripts in patient whole blood. Briefly: Affymetrix DNA array and TaqMan qRT-PCR of whole blood RNA of patients given Compound A. The conditions noted are these: Affymetrix GeneChip. The procedure: TRI Reagent® BD—RNA, DNA, protein isolation reagent was used according to the manufacturer's protocol, Molecular Research Center, Inc. (Cincinnati, Ohio) <www.mrcgene.com>.
Images were scanned with a Hewlett-Packard GeneArray scanner.
To determine the fold change, the AD of the post-treatment sample was divided by the AD of the pre-dose samples.
All probes contained a reporter dye (FAM) and a dye quencher (MGB). QRT-PCR was performed using 20 ng of total RNA with TaqMan® One-Step RT-PCR Master Mix Reagents Kit (Applied Biosystems) following the manufacturer's protocol. […] VEGF (Genbank accession number AF022375) transcripts were amplified using forward primer […] (SEQ ID NO: 165), reverse primer […] (SEQ ID NO: 166), and probe […] (SEQ ID NO: 167) to generate an 82-bp amplicon product. Vinculin (Genbank accession number M33308) transcripts were amplified using forward primer […] (SEQ ID NO: 168), reverse primer […] (SEQ ID NO: 169), and probe […] (SEQ ID NO: 170) to generate a 124-bp amplicon product. PECAM-1 (Genbank accession number L34657) transcripts were amplified using forward primer […] (SEQ ID NO: 171), reverse primer […] (SEQ ID NO: 172), and probe […] (SEQ ID NO: 173) to generate a 56-bp amplicon product. MAPK Kinase 3 (Genbank accession number L36719) transcripts were amplified using forward primer […] (SEQ ID NO: 174), reverse primer […] (SEQ ID NO: 175), and probe […] (SEQ ID NO: 176) to generate a 77-bp amplicon product. Hemoglobin, epsilon 1 (Genbank accession number AI349593) transcripts were amplified using forward primer […] (SEQ ID NO: 177), reverse primer […] (SEQ ID NO: 178), and probe […] (SEQ ID NO: 179) to generate a 66-bp amplicon product. GAPDH and 18S were ordered as pre-developed assay reagents (PDARs) from Applied Biosystems and used as endogenous controls.
Where ΔΔCt=(Cttarget−Ctcontrol)post-dose−(Cttarget−Ctcontrol)pre-dose.
For orientation: In qPCR the cycle at which signal appears reflects the starting amount.

The test system of the next assay is PBMC. The assay is described as follows: Affymetrix microarray expression profiling of PBMC, Compound B Trial A. The conditions noted are these: PBMC day 56 vs day 1. How it is done:
Patient samples were derived from 2 randomized, open-label, multicenter Phase III clinical trials comparing standard of care chemotherapy alone or combined with Compound B in patients with metastatic colorectal cancer. In both trials Compound B was delivered twice weekly at a dose of 145 mg/m^2 via I.V. infusion. In the first trial (designated Trial A), the standard of care chemotherapy consisted of weekly administration of 5-FU and leucovorin (Rosewell Park regimen); in the second trial (designated Trial B), the standard of care chemotherapy consisted of weekly or bi-weekly administration of 5-FU, leucovorin and Irinotecan (CPT-11). A total of 23 patient sample pairs were included in Affymetrix microarray expression profiling analysis, 2 females and 9 males in the Compound B treatment arm, and 2 females and 10 males in the control arm. The median patient age was 66 and 65 years for the Compound B treatment arm and control arm, respectively. For RT-verification experiments, samples from 12 females and 24 males from the Compound B treatment arm, and 14 females and 17 males from the control arm were used. The median age for these patients was 62 and 60 years, respectively. Clinical response criteria were defined according to RECIST guidelines.
All blood samples were collected into Vacutainer tubes containing sodium heparin. Ten 10 ml of blood was withdrawn from patients prior to receiving any treatment on day 1 and also prior to dosing at end of cycle 1 (day 56 in Trial A; day 42 in Trial B). For peripheral blood mononuclear cell (PBMC) preparations, blood samples were shipped overnight at ambient temperature to a central processing facility (Quest Diagnostics, Inc., Collegeville, Pa., USA) for PBMC isolation via Ficoll gradient method. Purified PBMCs were shipped in RNA lysis buffer (Clontech, Palo Alto, Calif., USA) to SUGEN where isolation of total RNA was performed. For Trial B, whole peripheral blood samples were directly frozen at the clinical sites and shipped on dry ice to SUGEN for RNA isolation.
Total RNA was purified from PBMC samples using Clontech Nucleospin RNA II kit reagents (Clontech, Palo Alto, Calif.) and from whole blood samples using MRC TRI Reagent BD (Molecular Research Center, Cincinnati, Ohio, USA), an adaptation of the Chomczynski single step method, according to the manufacturer's instructions. All sample preparations included a treatment with RNAse-free DNAse. RNA yields were measured by UV absorbance and RNA quality was assessed by agarose gel electrophoresis with ethidium bromide staining for visualization of ribosomal RNA band integrity.
In these experiments, equal amounts of starting material were used for pre- and post-treatment samples from each donor (typically 2 μg). Briefly, the protocol was as follows: double-stranded cDNA was synthesized from total RNA (2 μg), with Invitrogen Life Technologies SuperScript Choice system reagents (Invitrogen, Carlsbad, Calif.). The T7-(dT)24 oligomer was used for priming first-strand cDNA synthesis. Double-stranded cDNA product was purified via phenol-chloroform extraction, then used as template in first round of in vitro transcription (IVT) of cRNA. […] The cRNA product was then purified with Qiagen spin column clean-up protocol and used as template in second round of cDNA synthesis. This second round of synthesis was similar to the first round except that random hexamers were used in priming of first-strand synthesis, with T7-(dT)24 oligomer priming the second-strand. Purification of the cDNA was as in the first round. The second round of IVT of cRNA was as in the first round but with biotinylated ribonucleotides rather than non-biotinylated ribonucleotides. Purified cRNA was quantitated, chemically fragmented according to Affymetrix protocol, and then hybridized overnight on Human Genome U95A Arrays (which contain probe sets for the detection of approximately 12,600 transcripts). […]

The test system of the next assay is PBMC and whole blood RNA. The assay is described as follows: SYBR Green quantitative RT-PCR of PBMC / whole blood RNA, Compound B Trials A and B. As to conditions: end of one treatment cycle relative to baseline, two Phase III trials. The procedure:
Primers were designed with Primer Express 1.5 software (Applied Biosystems). In all cases, primers were designed to bind within the sequence that was used in Affymetrix probe set designs (target sequence information available on Affymterix NetAffx website). Total RNA samples (1 μg) were reverse transcribed to yield first-strand cDNA using the Applied Biosystems Reverse Transcription Reagents protocol (Applied Biosystems, Foster City, Calif.). The reverse transcription reactions were then diluted 1:5 in distilled H2O. […] For individual reactions, 10 μl of each sample were combined with 15 μl of SYBR Green PCR Master Mix (Applied Biosystems) containing the appropriate primer pair at 350 nM. Data was extracted and amplification plots generated with ABI SDS software. […]
The relative expression data for a select subset of potential biomarkers were tested for differences between the Compound B (treatment) and the standard of care (control) arms. […] Results from three different cross-validations were evaluated to select the best set of predictable biomarkers: (1) jackknife method (dropping one case at a time); (2) randomly splitting the pooled data into two halves, prediction (for building model) and validation (for testing model); and (3) using the first trial as prediction and the later trial as validation sets, respectively. […]

In assay [3] the test system is PAI-1. Briefly: PAI-1 plasma levels in Compound B trial patients. As to conditions: after 56 days of treatment.
Another assay relates to VEGF/PLGF heterodimers. Briefly: Hybrid ELISA for VEGF/PLGF heterodimers in patient plasma. As to conditions: Trial C. The source says:
Heterodimers of VEGF and PLGF have been reported in the scientific literature. To measure heterodimers, a hybrid ELISA assay was used, combining reagents from both the R&D Systems VEGF and PLGF ELISA kits (where VEGF antibodies are used in capture step and PLGF antibodies are used in detection step).

The test system of assay [4] is MIG. The assay is described as follows: MIG plasma ELISA, Compound 1 Phase I trials. The conditions noted are these: individual patients. The procedure: (§2) In Trials A and B, patients received Compound 1.
(§3) Data analysis was performed for each marker.

For another assay, the system named is IP-10. The assay is described as follows: IP-10 plasma ELISA, Compound 1 Phase I trials. The conditions noted are these: individual patients; >500 = above highest standard. The procedure: as §2, §3
The subject of a further assay is I-TAC. The assay is described as follows: I-TAC plasma ELISA, Compound 1 Phase I trials. The conditions noted are these: individual patients. The procedure: as §2, §3
Assay [5] has as its system MIG. Briefly: MIG plasma ELISA, Compound 1 Phase I trials. As to conditions: Trial C patients, FIG. 17.
Where [6] appears, read: advanced solid malignancies, 24 hours after first dose vs before.
[7] abbreviates: patients with Increase call, Trial A, with 5-FU/leucovorin.

For `Cc1[nH]c(/C=C2\C(=O)Nc3ccccc32)c(C)c1CCC(=O)O` [Compound A, 3-[2,4-dimethyl-5-(2-oxo-1,2-dihydro-indol-3-ylidenemethyl)-1H-pyrrol-3-yl]-propionic acid], the “level of PAI-1 in plasma” value in the assay on PAI-1 [1] was “increased”. Also, in the assay on VEGF, the “level of VEGF in plasma” value was “increased”. Further, the “level of TIMP-1 in plasma” value in the assay on TIMP-1 is given as “increased”. In assay [2] (setting [6]), the “level of VEGF RNA in whole blood” value was “increase” and the “level of vinculin RNA in whole blood” value is recorded as “increase”. Besides, in assay [2] (day 28 vs day 0, dosed about 2 times per day), the “levels of 26 RNA transcripts in patient blood” value is given as “increased and/or decreased”.

As to `Cc1cc(C)c(/C=C2\C(=O)Nc3ccccc32)[nH]1` [Compound B, 3-(3,5-dimethyl-1H-pyrrol-2-ylmethylene)-1,3-dihdyro-indol-2-one], in the assay with PBMC (Compound B (SU5416) arm, highest of the 13 transcripts), the “average fold change of lactoferrin transcript” value was 33. The “average fold change of hypothetical protein FLJ13052 transcript” value in the assay with PBMC (Compound B (SU5416) arm, lowest of the 13 transcripts) is reported as 2.6. Further, in the assay with PBMC (setting [7]), the “Increased in SU5416 arm: Antileukoprotease transcript” value was 9 of 11, the “Increased in SU5416 arm: BPI transcript” value is reported as 9 of 11, the “Increased in SU5416 arm: CD24 antigen transcript” value was 9 of 11 and the “Increased in SU5416 arm: CEA CAM 8 transcript” value is reported as 9 of 11. In addition, in the assay with PBMC (setting [7]), the “Increased in SU5416 arm: Defensin α 3 transcript” value is 10 of 11, the “Increased in SU5416 arm: Defensin α 4 transcript” value is on record as 10 of 11, the “Increased in SU5416 arm: Hypothetic. Protein FLJ13052 transcript” value is given as 7 of 11 and the “Increased in SU5416 arm: Lactoferrin transcript” value was 11 of 11. Besides, in the assay on PBMC (setting [7]), the “Increased in SU5416 arm: Lipocalin 2 transcript” value is listed as 10 of 11, the “Increased in SU5416 arm: Liver arginase transcript” value was 9 of 11, the “Increased in SU5416 arm: MMP-9 transcript” value is recorded as 8 of 11 and the “Increased in SU5416 arm: S100 P transcript” value is listed as 9 of 11. Also, the “Increased in SU5416 arm: Thrombospondin 1 transcript” value with PBMC (setting [7]) is 9 of 11. In the assay on PBMC (all cases of the Compound B arm), the “number of the 13 genes showing induction in each case” value is on record as “at least 6”. Besides, the “expression of CD24, lactoferrin, LCN2 and MMP-9 transcripts” value with PBMC and whole blood RNA is listed as “significantly induced”. Also, the “median PAI-1 plasma level, day 56” value in the assay with PAI-1 [3] (patients with MR (minor response) at end of cycle 1) is 23.93 ng/mL. Moreover, in the assay with PAI-1 [3] (patients with PD (progressive disease) at end of cycle 1), the “median PAI-1 plasma level, day 56” value worked out at 34.8 ng/mL.

As for `CCN(CC)CCNC(=O)c1c(C)[nH]c(C=C2C(=O)Nc3ccc(F)cc32)c1C.O=C(O)C[C@H](O)C(=O)O` [malate salt of Compound 1, L-malate salt of 5-(5-fluoro-2-oxo-1,2-dihydroindol-3-ylidenemethyl)-2,4-dimethyl-1H-pyrrole-3-carboxylic acid(2-diethylaminoethyl)amide], in the assay with VEGF/PLGF heterodimers, the “patients tested with increase in plasma levels of VEGF/PLGF heterodimer” value was 3 of 3. The “MIG plasma level, day 15” value with MIG [4] (cycle 1) was 339.16. Moreover, the “MIG plasma level, end C1 dosing” value in the assay with MIG [4] (in pg/mL (unit assumed)) is 995.47 and 81.439 and 145.64 and 698.23 and 1066.2 and 344.93 and 907.09 and 314.2. In addition, the “IP-10 plasma level, end C1 dosing” value in the assay on IP-10 was >500 (4×) and 240.31 and 384.06. In addition, the “I-TAC plasma level, day 15” value in the assay with I-TAC (cycle 1) came to 2020.2. Also, the “I-TAC plasma level, end C1 dosing” value in the assay on I-TAC (in pg/mL (unit assumed)) was 771.04 and 701.46 and 315.69. Also, in the assay with MIG [5], the “chemokine MIG plasma level during treatment” value is “induced”.
